Results: patent US8877757B2, “Pyrazine derivatives and use as PI3K inhibitors” (Merck Serono SA, priority 2005, dated 2014)

Legend:
[1] = target: Human recombinant GST-PI3δ (Homo sapiens (Human), UniProt O00329); assay: PI3K induced-lipid phosphorylation scintillation proximity assay (neomycin-coated SPA beads); assay type: biochemical
Excerpt: The efficacy of compounds of the invention in inhibiting the PI3K induced-lipid phosphorylation may be tested in the following binding assay.
The assay combines the scintillation proximity assay technology (SPA, Amersham) with the capacity of neomycin (a polycationic antibiotic) to bind phospholipids with high affinity and specificity. The Scintillation Proximity Assay is based on the properties of weakly emitting isotopes (such as ^3H, ^125I, ^33P). Coating SPA beads with neomycin allows the detection of phosphorylated lipid substrates after incubation with recombinant PI3K and radioactive ATP in the same well, by capturing the radioactive phospholipids to the SPA beads through their specific binding to neomycin.
To a 96 wells MTP containing 10 μl of the test compound of Formula (I) (solubilized in 10% DMSO; to yield a concentration of 100, 25, 5.0, 1.25, 0.312, 0.078, 0.0195, 0.00488, 0.00122 and 0.0003 μM of the test compound), the following assay components are added: 1) 10 μl of lipid micelles 2) 20 μl of Kinase buffer ([^33P]γ-ATP 162 μM/300 nCi, MgCl2 2.5 mM, DTT 2.5 mM, Na3VO4 25 μM in Hepes 40 mM, pH 7.4) and 3) 10 μl (100 ng) of Human recombinant GST-PI3δ (in Hepes 40 mM, pH 7.4, ethylenglycol 4%). After incubation at room temperature for 120 minutes, with gentle agitation, the reaction is stopped by addition of 200 μl of a solution containing 250 μg of neomycin-coated PVT SPA beads, ATP 60 mM and EDTA 6.2 mM in PBS. The assay is further incubated at room temperature for 60 minutes with gentle agitation to allow binding of phospholipids to neomycin-SPA beads. After precipitation of the neomycin-coated PVT SPA beads for 5 minutes at 1500×g, radioactive PtdIns(3)P is quantified by scintillation counting in a Wallac MicroBeta™ plate counter.
The values indicated in Table I below refer to the IC50 (μM) with respect to PI3K, i.e. the amount necessary to achieve 50% inhibition of said target. Said values show a considerable inhibitory potency of pyrazine compounds with regard to PI3K.

[2] = system: Akt phosphorylation in B cells; assay: IgM-induced Akt phosphorylation in B cell (human PBMC, flow cytometry); assay type: cell-based; conditions: 5 min, CD19+ IgM+ B cells in human PBMC, anti IgM for 5 minutes, read-out: IC50, inhibition of IgM-induced Akt Phosphorylation
Method: Human PBMC were prepared from a Buffy coat (Geneve Hospital) after a Ficoll gradient (FICOLL-PAQUE Plus PHARMACIA ref: 17-1440-03).
Cell concentration was adjusted to 10^6 cells per ml in RPMI (GIBCO Ref: 72400-21) without serum. Before stimulation, 90 μl of PBMC suspension was incubated with 10 μl of diluted compound in a 96 well round bottom plate for 20 minutes at 37° C.
For B cell activation, 30 μl of Fab′2 Goat anti IgM (Jackson Immuno-research) at 10 μg/ml was added to each well. After 5 minutes, cell activation was stopped with 4% paraformaldehyde (10 minutes at room temperature).
Fixed PBMC were then treated for 20 minutes with 0.15% Triton, washed twice with PBS and permeabilized with 50% methanol for 15 minutes.
PBMC were washed twice in PBS, resuspended in: PBS-4% FCS and incubated with anti P-Akt (1/100 dilution) for one hour at room temperature.
After one wash, PBMC were further stained for 30 minutes with a mixture of anti-CD19-PE (BD Biosciences), anti-IgM-FITC (BD Biosciences) and goat anti rabbit IgG-Alexa 647 (Molecular probe).
After washing, PBMC (Peripheral Blood Mononuclear Cells) were analysed on a FACSCalibur instrument (BD Biosciences) equipped with a 633 helium-neon laser, or stored at 4° C. for further analysis. 510^3 B cells events were gathered per sample in the CD19 positive region.
For the analysis, a threshold was applied on P-Akt histogram of CD 19+ IgM+ lymphocytes cells from the non-stimulated samples and the percentage of cells above this threshold was determined for each sample.

[3] = system: PKB/Akt phosphorylation in mast cells; assay: SCF-induced PKB/Akt phosphorylation in mast cells; assay type: cell-based, mice; conditions: Mast cell, 0.25 h; mast cells derived from mouse bone marrow, 20 ng/mL SCF for 15 minutes; read-out: IC50, inhibition of SCF-induced Akt Phosphorylation
Method: Protocol: Primary bone marrow cells were isolated from 4-8 weeks old wild type mice and derived to mast cells by incubation with medium containing 20 ng/mL of stem cell factor (SCF) (PeproTech, Switzerland) and 20 ng/mL of IL-3 (PeproTech, Switzerland) for at least 4 weeks. Confirmation of the expression of mast cell specific surface markers was done by FACS analysis using antibodies against c-kit (cKit-PE mouse antibody; Pharmingen). Cells were maintained in culture in the presence of SCF and IL-3. To induce PKB/Akt phosphorylation, mast cells were resuspended at 2.5×10^6 cells/mL and starved in medium containing no SCF or IL-3 for 24 h. After preincubation with compounds or 1% DMSO for 20 minutes, cells were activated with 20 ng/mL of SCF for 15 minutes at 37° C., fixed in 1.5% paraformaldehyde for 20 minutes and permeabilised with 0.2% Triton X-100 for 10 minutes, at room temperature. PKB/Akt phosphorylation was visualized using phospho-Ser-473 specific Akt antibodies (Cell Signaling) and standard FACS protocols.

Sequence of Human recombinant GST-PI3δ (O00329 whole entry): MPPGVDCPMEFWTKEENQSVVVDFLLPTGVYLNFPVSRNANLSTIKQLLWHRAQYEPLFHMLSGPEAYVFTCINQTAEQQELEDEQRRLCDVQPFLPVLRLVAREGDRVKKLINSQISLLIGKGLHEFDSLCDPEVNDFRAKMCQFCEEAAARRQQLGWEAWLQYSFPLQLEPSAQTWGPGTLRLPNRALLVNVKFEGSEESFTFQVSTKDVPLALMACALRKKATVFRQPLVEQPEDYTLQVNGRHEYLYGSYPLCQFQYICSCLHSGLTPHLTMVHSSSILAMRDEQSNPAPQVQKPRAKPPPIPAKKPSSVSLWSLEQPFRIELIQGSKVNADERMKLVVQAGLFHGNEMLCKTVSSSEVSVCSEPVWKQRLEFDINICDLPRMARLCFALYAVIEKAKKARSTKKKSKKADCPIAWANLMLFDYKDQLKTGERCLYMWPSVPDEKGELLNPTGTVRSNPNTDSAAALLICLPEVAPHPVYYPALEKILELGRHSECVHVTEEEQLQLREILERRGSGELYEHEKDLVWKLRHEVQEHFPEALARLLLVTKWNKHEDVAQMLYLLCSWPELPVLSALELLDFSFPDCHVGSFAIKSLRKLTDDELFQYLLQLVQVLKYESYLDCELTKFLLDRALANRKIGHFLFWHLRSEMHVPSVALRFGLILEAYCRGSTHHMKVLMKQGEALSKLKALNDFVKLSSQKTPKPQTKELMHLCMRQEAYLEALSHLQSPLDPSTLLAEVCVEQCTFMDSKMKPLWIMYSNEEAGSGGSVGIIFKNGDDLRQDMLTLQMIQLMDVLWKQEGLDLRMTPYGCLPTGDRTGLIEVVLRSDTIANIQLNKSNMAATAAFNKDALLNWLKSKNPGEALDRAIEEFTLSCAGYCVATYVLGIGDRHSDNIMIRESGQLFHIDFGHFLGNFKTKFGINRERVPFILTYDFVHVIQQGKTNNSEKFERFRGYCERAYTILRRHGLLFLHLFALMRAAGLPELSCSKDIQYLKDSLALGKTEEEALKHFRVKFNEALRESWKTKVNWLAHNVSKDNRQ

SMILES	IC50 [1] [nM]	IC50 [2] [nM]	IC50 [3] [nM]
COc1ccc(OC)c(Nc2nc3ccccc3nc2NS(=O)(=O)c2cccc(C#N)c2)c1 [Example 11, 3-Cyano-N-{3-[(2,5-dimethoxyphenyl)amino]quinoxalin-2-yl}benzene sulfonamide]	430		
COc1ccc(OC)c(Nc2nc3ccccc3nc2NS(=O)(=O)c2ccccc2F)c1 [Example 14, N-{3-[(2,5-dimethoxyphenyl)amino]quinoxalin-2-yl}-2-fluorobenzene sulfonamide]		34	
COc1cc(Nc2nc3ccccc3nc2NS(=O)(=O)c2cn(C)cn2)cc(OC)c1 [Example 20, N-{3-[(3,5-dimethoxyphenyl)amino]quinoxalin-2-yl}-1-methyl-1H-imidazole-4-sulfonamide]		24	410
COc1cc(Nc2nc3ccccc3nc2NS(=O)(=O)c2ccc(C#N)cc2)cc(OC)c1 [Example 39, 4-cyano-N-{3-[(3,5-dimethoxyphenyl)amino]quinoxalin-2-yl}benzene sulfonamide]		11	350
COc1ccc(OC)c(Nc2nc3ccccc3nc2NS(=O)(=O)c2ccccc2Cl)c1 [Example 42, 2-chloro-N-{3-[(2,5-dimethoxyphenyl)amino]quinoxalin-2-yl}benzene sulfonamide]		110	
COc1ccc(C)c(Nc2nc3ccccc3nc2NS(=O)(=O)c2cccnc2)c1 [Example 101, N-{3-[(5-methoxy-2-methylphenyl)amino]quinoxalin-2-yl}pyridine-3-sulfonamide]		150	
COc1ccc(C)c(Nc2nc3ccccc3nc2NS(=O)(=O)c2ccc(C#N)cc2)c1 [Example 109, 4-cyano-N-{3-[(5-methoxy-2-methylphenyl)amino]quinoxalin-2-yl}benzenesulfonamide]			820
COc1ccc(C)c(Nc2nc3ccccc3nc2NS(=O)(=O)c2ccc(C)nc2)c1 [Example 110, N-{3-[(5-methoxy-2-methylphenyl)amino]quinoxalin-2-yl}-6-methylpyridine-3-sulfonamide]		140	
COc1ccc(Cl)c(Nc2nc3ccccc3nc2NS(=O)(=O)c2ccc(C)nc2)c1 [Example 111, N-{3-[(2-chloro-5-methoxyphenyl)amino]quinoxalin-2-yl}-6-methylpyridine-3-sulfonamide]		26	
COc1ccc(OC)c(Nc2nc3ccccc3nc2NS(=O)(=O)c2ccc(CN)cc2)c1 [Example 131, 4-(aminomethyl)-N-{3-[(2,5-dimethoxyphenyl)amino]quinoxalin-2-yl}benzenesulfonamide]		13	150
COc1cc(Nc2nc3ccccc3nc2NS(=O)(=O)c2ccc(CO)nc2)cc(OC)c1 [Example 135, N-{3-[(3,5-dimethoxyphenyl)amino]quinoxalin-2-yl}-6-(hydroxymethyl)pyridine-3-sulfonamide]			540
COc1cc(Nc2nc3ccccc3nc2NS(=O)(=O)c2ccc(CN)s2)cc(OC)c1 [Example 150, 5-(aminomethyl)-N-{3-[(3,5-dimethoxyphenyl)amino]quinoxalin-2-yl}thiophene-2-sulfonamide]		7	90

Now from value to compound:

IC50 [1] [nM]	IC50 [2] [nM]	IC50 [3] [nM]	SMILES
	26		COc1cc(Nc2nc3ccccc3nc2NS(=O)(=O)c2ccccc2F)cc(OC)c1 [Example 15, N-{3-[(3,5-dimethoxyphenyl)amino]quinoxalin-2-yl}-2-fluorobenzene sulfonamide]
	40	1890	COc1cc(Nc2nc3ccccc3nc2NS(=O)(=O)c2ccccc2Cl)cc(OC)c1 [Example 38, 2-chloro-N-{3-[(3,5-dimethoxyphenyl)amino]quinoxalin-2-yl}benzene sulfonamide]
		2420	COc1cc(Nc2nc3ccccc3nc2NS(=O)(=O)c2ccc(F)cc2)cc(OC)c1 [Example 56, N-{3-[(3,5-dimethoxyphenyl)amino]quinoxalin-2-yl}-4-fluorobenzene Sulfonamide]
		1600	COc1cc(Nc2nc3ccccc3nc2NS(=O)(=O)c2cccnc2)cc(OC)c1 [Example 95, N-{3-[(3,5-dimethoxyphenyl)amino]quinoxalin-2-yl}pyridine-3-sulfonamide]
		1220	COc1cc(Nc2nc3ccccc3nc2NS(=O)(=O)c2ccc(C)nc2)cc(OC)c1 [Example 106, N-{3-[(3,5-dimethoxyphenyl)amino]quinoxalin-2-yl}-6-methylpyridine-3-sulfonamide]
	290		COc1cc(Nc2nc3ccccc3nc2NS(=O)(=O)c2cccc(CN3CCOCC3)c2)cc(OC)c1 [Example 129, N-{3-[(3,5-dimethoxyphenyl)amino]quinoxalin-2-yl}-3-(morpholin-4-ylmethyl)benzenesulfonamide]
	60	130	COc1cc(Nc2nc3ccccc3nc2NS(=O)(=O)c2ccc(CN3CCN(C)CC3)cc2)cc(OC)c1 [Example 130, N-{3-[(3,5-dimethoxyphenyl)amino]quinoxalin-2-yl}-4-[(4-methylpiperazin-1-yl)methyl]benzenesulfonamide]
		680	COc1cc(Nc2nc3ccccc3nc2NS(=O)(=O)c2cccc(CO)c2)cc(OC)c1 [Example 132, N-{3-[(3,5-dimethoxyphenyl)amino]quinoxalin-2-yl}-3-(hydroxymethyl)benzenesulfonamide]
		210	COc1cc(Nc2nc3ccccc3nc2NS(=O)(=O)c2ccc(CO)cc2)cc(OC)c1 [Example 134, N-{3-[(3,5-dimethoxyphenyl)amino]quinoxalin-2-yl}-4-(hydroxymethyl)benzenesulfonamide]
	370	1220	COc1cc(Nc2nc3ccccc3nc2NS(=O)(=O)c2ccc(CN3CCOCC3)cc2)cc(OC)c1 [Example 136, N-{3-[(3,5-dimethoxyphenyl)amino]quinoxalin-2-yl}-4-(morpholin-4-ylmethyl)benzenesulfonamide]
	40	400	COc1cc(Nc2nc3ccccc3nc2NS(=O)(=O)c2cccc(CN3CCN(C)CC3)c2)cc(OC)c1 [Example 137, N-{3-[(3,5-dimethoxyphenyl)amino]quinoxalin-2-yl}-3-[(4-methylpiperazin-1-yl)methyl]benzenesulfonamide]
	27	270	COc1cc(Nc2nc3ccccc3nc2NS(=O)(=O)c2cccc(CN(C)C)c2)cc(OC)c1 [Example 139, N-{3-[(3,5-dimethoxyphenyl)amino]quinoxalin-2-yl}-3-[(dimethylamino)methyl]benzenesulfonamide]
		390	COc1cc(Nc2nc3ccccc3nc2NS(=O)(=O)c2ccc(CN3CCN(C)CC3)nc2)cc(OC)c1 [Example 149, N-{3-[(3,5-dimethoxyphenyl)amino]quinoxalin-2-yl}-6-[(4-methylpiperazin-1-yl)methyl]pyridine-3-sulfonamide]
